Experimental findings from PubChem BioAssay AID200 (DTP/NCI, 2004) are described below.

Values joined by “and” are separate entries in the source; they are usually repeats but may differ in a detail not shown here. Equal values may be shown once. Inconclusive results and toxic doses are left out. Where a SMILES comes first, the peptide text is derived from it. [ ]: non-standard residue; d: D form. The star is where a group is joined. Nle = CCCC[CH](N)C(=O)O; Cbz = O=C(OCc1ccccc1)*

The test relates to B6C3F1 mice, B16 melanoma ip, median survival T/C. The experiment in a line: NCI In Vivo Anticancer Drug Screen. Data for tumor model B16 Melanoma (intraperitoneal) in B6C3F1 mice. To be noted: endpoint: median survival time, higher = longer survival. The method in brief: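 Readout: survival or tumor size in treated mice relative to vehicle controls (T/C). Model uses transplantable tumors grown in mice.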

Setting [1] is: dose: 12.5 mg/kg/injection, schedule: Q01DX009 (ip), vehicle: saline with Tween-80.
Setting [2] is: dose: 25.0 mg/kg/injection, schedule: Q01DX009 (ip), vehicle: saline with Tween-80.
Setting [3] is: dose: 50.0 mg/kg/injection, schedule: Q01DX009 (ip), vehicle: saline with Tween-80.
Where [4] appears, read: dose: 100.0 mg/kg/injection, schedule: Q01DX009 (ip), vehicle: saline with Tween-80.
Where [5] appears, read: dose: 200.0 mg/kg/injection, schedule: Q01DX009 (ip), vehicle: saline with Tween-80.
[6] abbreviates: dose: 400.0 mg/kg/injection, schedule: Q01DX009 (ip), vehicle: saline with Tween-80.
[7] abbreviates: dose: 200.0 mg/kg/injection, schedule: Q01DX009 (ip), vehicle: saline.
Where [8] appears, read: dose: 400.0 mg/kg/injection, schedule: Q01DX009 (ip), vehicle: saline.
The mark [9] stands for this setting: dose: 50.0 mg/kg/injection, schedule: Q01DX009 (ip), vehicle: saline.
Setting [10] is: dose: 100.0 mg/kg/injection, schedule: Q01DX009 (ip), vehicle: saline.
Setting [11] is: dose: 100.0 mg/kg/injection, schedule: Q01DX009 (ip), vehicle: Klucel (hydroxypropylcellulose) (HPC).
Where [12] appears, read: dose: 200.0 mg/kg/injection, schedule: Q01DX009 (ip), vehicle: Klucel (hydroxypropylcellulose) (HPC).

In the case of `c1ccc2sc(SSN3CC4CCC(CC4)C3)nc2c1`, the T/C under setting [1] was 95 % of control and 108 % of control; the T/C under setting [2] was 93 % of control and 102 % of control; the T/C under setting [3] was 87 % of control and 102 % of control; the T/C under setting [4] is 97 % of control; the T/C under setting [5] was 87 % of control; the T/C under setting [6] was 88 % of control.
Take `O=C(CCl)N1c2ccccc2Oc2cc3ccccc3cc21`: the T/C was 111 % of control under setting [3]; 108 % of control under setting [4]; 97 % of control under setting [5]; 122 % of control and 95 % of control under setting [7]; 92 % of control under setting [6]; 97 % of control and 100 % of control under setting [8].
`O=C(Nc1cccc(Cl)c1)C1CCCC1=Nc1cccc(Cl)c1` (stereo not drawn): the T/C by setting is: under setting [3], 99 % of control; under setting [4], 96 % of control; under setting [5], 91 % of control.
With `O=C(O)C(CSC(c1ccccc1)(c1ccccc1)c1ccccc1)N=Cc1cccs1` (stereo not drawn), the T/C is 112 % of control (dose: 12.5 mg/kg/injection, schedule: Q01DX009 (ip), vehicle: suspension in saline) and 118 % of control (dose: 25.0 mg/kg/injection, schedule: Q01DX009 (ip), vehicle: suspension in saline).
Regarding `CC1(CO)C(O)CCC2(C)C1CCC1CC3CC12CCC3(O)CO` (stereo not drawn), the T/C is, setting by setting: (dose: 10.0 mg/kg/injection, schedule: Q03HX027 (ip), vehicle: saline with Tween-80) 118 % of control; under setting [1], 116 % of control and 117 % of control; under setting [2], 119 % of control and 122 % of control; (dose: 30.0 mg/kg/injection, schedule: Q01DX005 (iv), vehicle: Klucel (hydroxypropylcellulose) (HPC)) 103 % of control; (dose: 40.0 mg/kg/injection, schedule: Q03HX027 (ip), vehicle: saline with Tween-80) 187 % of control and 202 % of control; (dose: 50.0 mg/kg/injection, schedule: Q01DX009 (ip), vehicle: distilled water + Tween-80) 179 % of control. In addition, the T/C runs as follows: under setting [3], 159 % of control; under setting [9], 109 % of control; (dose: 60.0 mg/kg/injection, schedule: Q01DX005 (iv), vehicle: Klucel (hydroxypropylcellulose) (HPC)) 95 % of control; (dose: 60.0 mg/kg/injection, schedule: Q01DX005 (oral), vehicle: Klucel (hydroxypropylcellulose) (HPC)) 106 % of control; (dose: 75.0 mg/kg/injection, schedule: Q01DX009 (ip), vehicle: saline) 113 % of control; (dose: 80.0 mg/kg/injection, schedule: Q03HX027 (ip), vehicle: saline with Tween-80) 235 % of control. Besides, the T/C is, setting by setting: (dose: 100.0 mg/kg/injection, schedule: Q01DX009 (ip), vehicle: distilled water + Tween-80) 166 % of control; under setting [4], 162 % of control and 173 % of control and 187 % of control; under setting [10], 119 % of control; (dose: 120.0 mg/kg/injection, schedule: Q01DX005 (ip), vehicle: Klucel (hydroxypropylcellulose) (HPC)) 150 % of control; (dose: 120.0 mg/kg/injection, schedule: Q01DX005 (iv), vehicle: Klucel (hydroxypropylcellulose) (HPC)) 104 % of control; (dose: 120.0 mg/kg/injection, schedule: Q01DX005 (oral), vehicle: Klucel (hydroxypropylcellulose) (HPC)) 99 % of control. Besides, the T/C reads like this: (dose: 150.0 mg/kg/injection, schedule: Q01DX009 (ip), vehicle: saline) 161 % of control; (dose: 200.0 mg/kg/injection, schedule: Q01DX009 (ip), vehicle: distilled water + Tween-80) 201 % of control; under setting [5], 236 % of control; (dose: 240.0 mg/kg/injection, schedule: Q01DX005 (ip), vehicle: Klucel (hydroxypropylcellulose) (HPC)) 184 % of control; (dose: 240.0 mg/kg/injection, schedule: Q01DX005 (oral), vehicle: Klucel (hydroxypropylcellulose) (HPC)) 104 % of control; (dose: 480.0 mg/kg/injection, schedule: Q01DX005 (oral), vehicle: Klucel (hydroxypropylcellulose) (HPC)) 100 % of control.
`O=C1N[C@H]2[C@H](CS[C@H]2CCCCC(=O)N(CCP(c2ccccc2)c2ccccc2)CCP(c2ccccc2)c2ccccc2)N1`: the T/C is 110 % of control and 97 % of control (dose: 25.0 mg/kg/injection, schedule: Q01DX009 (ip), vehicle: Klucel (hydroxypropylcellulose) (HPC)); 109 % of control and 101 % of control (dose: 50.0 mg/kg/injection, schedule: Q01DX009 (ip), vehicle: Klucel (hydroxypropylcellulose) (HPC)); 105 % of control under setting [11]; 113 % of control under setting [12]; 101 % of control (dose: 400.0 mg/kg/injection, schedule: Q01DX009 (ip), vehicle: Klucel (hydroxypropylcellulose) (HPC)).
Turning to `CCC1CC2CN(CCc3c([nH]c4ccccc34)C(C(=O)OC)(c3cc4c(cc3OC)N(C)C3C(O)(C(=O)OC)C(OC(C)=O)C5(CC)C=CCN6CCC43C65)C2)C1` (stereo not drawn), the T/C reads like this: (dose: 0.06 mg/kg/injection, schedule: Q01DX009 (ip), vehicle: saline) 111 % of control; (dose: 0.06 mg/kg/injection, schedule: Q01DX009 (ip), vehicle: suspension in saline) 116 % of control; (dose: 0.12 mg/kg/injection, schedule: Q01DX009 (ip), vehicle: suspension in saline) 114 % of control; (dose: 0.13 mg/kg/injection, schedule: Q01DX009 (ip), vehicle: saline) 110 % of control; (dose: 0.5 mg/kg/injection, schedule: Q01DX009 (ip), vehicle: saline) 175 % of control; (dose: 1.0 mg/kg/injection, schedule: Q01DX009 (ip), vehicle: saline) 208 % of control. Further, the T/C is, setting by setting: (dose: 2.0 mg/kg/injection, schedule: Q01DX009 (ip), vehicle: saline) 248 % of control; (dose: 2.0 mg/kg/injection, schedule: Q01DX009 (ip), vehicle: suspension in saline) 226 % of control.
For the molecule `c1ccc(Cc2ccccc2)cc1`, the T/C was 90 % of control under setting [3], 90 % of control under setting [4] and 95 % of control under setting [5].
As to `NCCCN=c1ccc2c3c1c(O)c1c(O)ccc(=O)c1c3[nH]n2CCNCCO`, the T/C by setting is: (dose: 2.0 mg/kg/injection, schedule: Q01DX009 (ip), vehicle: water) 188 % of control; (dose: 4.0 mg/kg/injection, schedule: Q01DX009 (ip), vehicle: water) 263 % of control; (dose: 8.0 mg/kg/injection, schedule: Q01DX009 (ip), vehicle: water) 165 % of control.
For the molecule `C=C(C)C(=O)O[C@H]1CC2=C[C@@H](C[C@@]3(C)O[C@@H]3[C@H]3OC(=O)C(=C)[C@@H]31)OC2=O`, the T/C runs as follows: (dose: 3.75 mg/kg/injection, schedule: Q01DX009 (ip), vehicle: Klucel (hydroxypropylcellulose) (HPC)) 101 % of control; (dose: 7.5 mg/kg/injection, schedule: Q01DX009 (ip), vehicle: Klucel (hydroxypropylcellulose) (HPC)) 107 % of control; (dose: 15.0 mg/kg/injection, schedule: Q01DX009 (ip), vehicle: Klucel (hydroxypropylcellulose) (HPC)) 103 % of control.
With `CCCCC(NC(=O)OCc1ccccc1)C(=O)NC(C(=O)O)C(C)C` (stereo not drawn) (Cbz-[Nle]-Val-OH; configuration not given here), the T/C under setting [11] is 108 % of control and the T/C under setting [12] is 105 % of control.
For `CC(=O)Nc1ccc(C(=O)C=O)cc1`, the T/C (dose: 6.25 mg/kg/injection, schedule: Q01DX009 (ip), vehicle: saline with Tween-80) is 101 % of control and 103 % of control; the T/C under setting [1] is 116 % of control and 106 % of control; the T/C under setting [2] was 112 % of control and 101 % of control; the T/C under setting [3] is 112 % of control and 115 % of control; the T/C under setting [4] was 102 % of control and 103 % of control.
On to `COc1cccc2c1C(=O)c1c(O)c3c(c(O)c1C2=O)C[C@@](O)(c1csc(N)n1)C[C@@H]3OC1CC(N)C(O)C(C)O1` (stereo partly drawn), for which the T/C (dose: 25.0 mg/kg/injection, schedule: Q01DX001 (ip), vehicle: water) was 154 % of control.
As to `OCC1(CO)COC2(CCCCC2)N1`, the T/C is, setting by setting: (dose: 6.25 mg/kg/injection, schedule: Q01DX009 (ip), vehicle: saline) 95 % of control; (dose: 12.5 mg/kg/injection, schedule: Q01DX009 (ip), vehicle: saline) 119 % of control and 96 % of control and 103 % of control; (dose: 25.0 mg/kg/injection, schedule: Q01DX009 (ip), vehicle: saline) 114 % of control and 102 % of control and 104 % of control; under setting [9], 114 % of control and 96 % of control and 104 % of control; under setting [10], 112 % of control and 94 % of control and 104 % of control; under setting [7], 111 % of control and 99 % of control. For the same molecule, under setting [8], the T/C is 109 % of control and 93 % of control.
